Experiments:
CYP3A4 = CYP3A4 (Homo sapiens, UniProt P08684); assay: Cytochrome P450 (CYP450) Inhibition Assay, CYP3A4 (Vivid fluorescence, BOMCC substrate); conditions: human, P450 Baculosomes (recombinant CYP3A4), probe BOMCC (Vivid substrate)
sodium channel = assay: Guanidine influx assay (14C-guanidine radiotracer flux, in vitro); format: cell-based, human or rat; conditions: guanidine influx assay using a known cell line that expresses a sodium channel
Procedure, shortened: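 IC50 derives from a four-parameter logistic fit of 14C-guanidine uptake, test agent serially half-diluted around a 1 μM midpoint. Flux was driven by aconitine in low-sodium HEPES/choline saline at ambient temperature, using endogenous or recombinant human or rat sodium-channel cell lines plated ~100,000/well for 20–24 h.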

Chain of CYP3A4 (P08684 whole entry): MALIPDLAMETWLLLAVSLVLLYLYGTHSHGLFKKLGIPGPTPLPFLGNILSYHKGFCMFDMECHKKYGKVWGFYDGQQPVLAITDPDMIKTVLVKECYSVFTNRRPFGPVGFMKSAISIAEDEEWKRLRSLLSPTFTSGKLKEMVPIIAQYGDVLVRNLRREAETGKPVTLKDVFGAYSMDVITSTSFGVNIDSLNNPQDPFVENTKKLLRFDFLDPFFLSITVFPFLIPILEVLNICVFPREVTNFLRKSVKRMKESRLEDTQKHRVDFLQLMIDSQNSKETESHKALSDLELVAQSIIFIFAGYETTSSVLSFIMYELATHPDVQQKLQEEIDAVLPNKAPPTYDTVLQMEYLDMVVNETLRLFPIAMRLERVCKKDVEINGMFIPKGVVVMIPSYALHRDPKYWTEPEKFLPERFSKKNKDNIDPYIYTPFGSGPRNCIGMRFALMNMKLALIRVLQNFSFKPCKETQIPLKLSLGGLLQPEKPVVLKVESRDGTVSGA

SMILES | inhibition at 10 µM (CYP3A4) | IC50 (sodium channel) | melting point | IC50 (sodium channel; activity level class)
CN1CCC(CN2C(=O)C3(COc4cc5c(cc43)CCO5)c3ccccc32)CC1 (stereo not drawn) [Example 11.10, 1′-[(1-methylpiperidin-4-yl)methyl]-5,6-dihydrospiro[benzo[1,2-b:5,4-b′]difuran-3,3′-indol]-2′(1′H)-one] | > 50% | ≥ 10000 nM | 155 to 158 °C | 
O=C1N(Cc2noc(C(F)(F)F)n2)c2cccc(Cl)c2C12COc1cc3c(cc12)OCO3 (stereo not drawn) [Example 11.19, 4′-chloro-1′-{[5-(trifluoromethyl)-1,2,4-oxadiazol-3-yl]methyl}spiro[furo[2,3-f][1,3]benzodioxole-7,3′-indol]-2′(1′H)-one] | > 50% | 1 to 100 nM | 138 to 140 °C | 
CC(C)CCN1C(=O)C2(COc3cc(O)ccc32)c2ccccc21 (stereo not drawn) [Example 11.49, 6-hydroxy-1′-(3-methylbutyl)spiro[1-benzofuran-3,3′-indol]-2′(1′H)-one] | > 50% | 1 to 100 nM | 101 to 103 °C | 
Nc1ccc2c(c1)OCC21C(=O)N(C[C@H]2CCCO2)c2ccccc21 (stereo partly drawn) [Example 11.47, 6-amino-1′-[(2R)-tetrahydrofuran-2-ylmethyl]spiro[1-benzofuran-3,3′-indol]-2′(1′H)-one] | > 50% | 1000 to 10000 nM | 71 to 74 °C | 
Nc1nc(CN2C(=O)C3(COc4cc5c(cc43)OCO5)c3ccccc32)cs1 (stereo not drawn) [Example 4.85, 1′-[(2-amino-1,3-thiazol-4-yl)methyl]spiro[furo[2,3-f][1,3]benzodioxole-7,3′-indol]-2′(1′H)-one] | > 50% |  | 230 to 235 °C | 100 to 1000 nM
O=C1N(Cc2ccc(C(F)(F)F)o2)c2ccccc2C12COc1cc(N[C@@H]3CCNC3)ccc12 (stereo partly drawn) [Example 11.52, 6-[(3R)-pyrrolidin-3-ylamino]-1′-{[5-(trifluoromethyl)furan-2-yl]methyl}spiro[1-benzofuran-3,3′-indol]-2′(1′H)-one] | > 50% | 100 to 1000 nM | 122 to 125 °C | 
O=C1N(Cc2cnc(Br)s2)c2ccccc2C12COc1cc3c(cc12)OCO3 (stereo not drawn) [Example 4.81, 1′-[(2-bromo-1,3-thiazol-5-yl)methyl]spiro[furo[2,3-f][1,3]benzodioxole-7,3′-indol]-2′(1′H)-one] | > 50% |  | 215 to 217 °C | 1 to 100 nM
COC(=O)c1coc(CN2C(=O)C3(COc4cc5onc(C)c5cc43)c3ccccc32)n1 (stereo not drawn) [Example 9.58, methyl 2-[(3-methyl-2′-oxospiro[furo[3,2-f][1,2]benzisoxazole-5,3′-indol]-1′(2′H)-yl)methyl]-1,3-oxazole-4-carboxylate] | < 50% | 100 to 1000 nM | 148 to 152 °C | 
O=C1N(Cc2ncccc2C(F)(F)F)c2ccccc2C12COc1cc3c(cc12)OC(F)(F)O3 (stereo not drawn) [Example 2.36, 2,2-difluoro-1′-{[3-(trifluoromethyl)pyridin-2-yl]methyl}spiro[furo[2,3-f][1,3]benzodioxole-7,3′-indol]-2′(1′H)-one] | < 50% |  | 200 to 201 °C | 1000 to 10000 nM
Cc1nc(CN2C(=O)C3(COc4cc5c(cc43)OCO5)c3ccccc32)c(C(F)(F)F)o1 (stereo not drawn) [Example 1.9, 1′-{[2-methyl-5-(trifluoromethyl)-1,3-oxazol-4-yl]methyl}spiro[furo[2,3-f][1,3]benzodioxole-7,3′-indol]-2′(1′H)-one] | > 50% |  | 136 to 137 °C | 1 to 100 nM
Cc1noc2cc3c(cc12)C1(CO3)C(=O)N(Cc2cccnc2)c2ccccc21 (stereo not drawn) [Example 9.25, 3-methyl-1′-(pyridin-3-ylmethyl)spiro[furo[3,2-f][1,2]benzisoxazole-5,3′-indol]-2′(1′H)-one] | > 50% |  | 176 to 177 °C | 1 to 100 nM
O=C1N(C[C@H]2CCCO2)c2ccccc2C12COc1cc3c(cc12)OCCCO3 (stereo partly drawn) [Example 8.11, 1′-[(2R)-tetrahydrofuran-2-ylmethyl]-3,4-dihydro-2H-spiro[furo[2,3-h][1,5]benzodioxepine-9,3′-indol]-2′(1′H)-one] | < 50% |  | 134 to 138 °C | 1000 to 10000 nM
CC(C)CCN1C(=O)[C@]2(COc3cc4c(cc32)CCO4)c2ccccc21 [Example 5.2, (3R)-1-(3-methylbutyl)-5,6-dihydrospiro[benzo[1,2-b:5,4-b′]difuran-3,3′-indol]-2′(1′H)-one] | > 50% |  | 86 to 87 °C | 1000 to 10000 nM
O=C1N(Cc2ccc(Cl)s2)c2cccc(Cl)c2C12COc1cc3c(cc12)OCO3 (stereo not drawn) [Example 4.89, 4′-chloro-1′-[(5-chloro-2-thienyl)methyl]spiro[furo[2,3-f][1,3]benzodioxole-7,3′-indol]-2′(1′H)-one] | > 50% |  | 167 to 168 °C | 1 to 100 nM
O=C1COc2cc3c(cc21)C1(CO3)C(=O)N(C[C@H]2CCCO2)c2ccccc21 (stereo partly drawn) [Example 11.60, 1′-[(2R)-tetrahydrofuran-2-ylmethyl]spiro[benzo[1,2-b:5,4-b′]difuran-3,3′-indole]-2′,5(1′H,6H)-dione] | < 50% | 100 to 1000 nM | 142 to 144 °C | 
O=C1N(Cc2ncccc2F)c2ccccc2[C@]12COc1cc3c(cc12)OCCO3 [Example 4.108, (8S)-1′-[(3-fluoropyridin-2-yl)methyl]-2,3-dihydrospiro[furo[2,3-g][1,4]benzodioxine-8,3′-indol]-2′(1′H)-one] | < 50% |  | 125 to 126 °C | 1 to 100 nM
O=C1N(Cc2ncccc2C(F)(F)F)c2ccccc2C12COc1ccc3c(c12)OCCO3 (stereo not drawn) [Example 11.109, 1′-{[3-(trifluoromethyl)pyridin-2-yl]methyl}-2,3-dihydrospiro[furo[3,2-f][1,4]benzodioxine-9,3′-indol]-2′(1′H)-one] | < 50% | 1000 to 10000 nM | 245 to 247 °C | 

Now from value to molecule:

inhibition at 10 µM (CYP3A4) | IC50 (sodium channel) | melting point | IC50 (sodium channel; activity level class) | SMILES
> 50% | 100 to 1000 nM | 96 to 98 °C |  | CN(C)C(=O)c1cc(CN2C(=O)C3(COc4cc5c(cc43)OCO5)c3ccccc32)oc1C(F)(F)F (stereo not drawn) [Example 12.59, N,N-dimethyl-5-[(2′-oxospiro[furo[2,3-f][1,3]benzodioxole-7,3′-indol]-1′(2′H)-yl)methyl]-2-(trifluoromethyl)furan-3-carboxamide]
> 50% | 100 to 1000 nM | 152 to 154 °C |  | O=C1N(Cc2ncccc2C(F)(F)F)c2ccccc2C12COc1cc3[nH]ncc3cc12 (stereo not drawn) [Example 46.2, 1′-((3-(trifluoromethyl)pyridin-2-yl)methyl)-1,6-dihydrospiro[furo[3,2-f]indazole-5,3′-indolin]-2′-one]
< 50% | 100 to 1000 nM | 64 to 66 °C |  | CC(O)CCN1C(=O)C2(COc3cc4c(cc32)CCO4)c2ccccc21 (stereo not drawn) [Example 14.4, 1′-(3-hydroxybutyl)-5,6-dihydrospiro[benzo[1,2-b:5,4-b′]difuran-3,3′-indol]-2′(1′H)-one]
< 50% | 100 to 1000 nM | > 250 °C |  | O=C(Nc1nccs1)c1ccc(CN2C(=O)C3(COc4cc5c(cc43)CCO5)c3ccccc32)cc1 (stereo not drawn) [Example 12.43, 4-[(2′-oxo-5,6-dihydrospiro[benzo[1,2-b:5,4-b′]difuran-3,3′-indol]-1′(2′H)-yl)methyl]-N-1,3-thiazol-2-ylbenzamide]
> 50% | 100 to 1000 nM | 84 to 85 °C |  | CCOCCNC(=O)c1ccc(CN2C(=O)C3(COc4cc5c(cc43)CCO5)c3ccccc32)cc1 (stereo not drawn) [Example 12.41, N-(2-ethoxyethyl)-4-[(2′-oxo-5,6-dihydrospiro[benzo[1,2-b:5,4-b′]difuran-3,3′-indol]-1′(2′H)-yl)methyl]benzamide]
> 50% | 100 to 1000 nM | 90 to 96 °C |  | CN(C)C(=O)c1cccc(CN2C(=O)C3(COc4cc5c(cc43)OCCO5)c3ccccc32)c1 (stereo not drawn) [Example 12.62, N,N-dimethyl-3-[(2′-oxo-2,3-dihydrospiro[furo[2,3-g][1,4]benzodioxine-8,3′-indol]-1′(2′H)-yl)methyl]benzamide]
> 50% | 1 to 100 nM | 229 to 236 °C |  | CN(C)c1ccc(CN2C(=O)C3(COc4cc5c(cc43)OCCO5)c3ccccc32)nc1 (stereo not drawn) [Example 33.4, 1′-{[5-(dimethylamino)pyridin-2-yl]methyl}-2,3-dihydrospiro[furo[2,3-g][1,4]benzodioxine-8,3′-indol]-2′(1′H)-one]
> 50% | 100 to 1000 nM | 124 to 126 °C |  | Cl.O=C1N(CCCNCC(F)(F)F)c2ccccc2C12COc1cc3c(cc12)CCO3 (stereo not drawn) [Example 15.3, 1′-{3-[(2,2,2-trifluoroethyl)amino]propyl}-5,6-dihydrospiro[benzo[1,2-b:5,4-b′]difuran-3,3′-indol]-2′(1′H)-one hydrochloride]
> 50% | 100 to 1000 nM | 234 to 238 °C |  | CN(C(=O)CN1C(=O)C2(COc3cc4c(cc32)CCO4)c2ccccc21)c1ccccc1 (stereo not drawn) [Example 12.52, N-methyl-2-(2′-oxo-5,6-dihydrospiro[benzo[1,2-b:5,4-b′]difuran-3,3′-indol]-1′(2′H)-yl)-N-phenylacetamide]
> 50% | 1 to 100 nM | 205 to 206 °C |  | COc1ccc(-c2cccc3c2C2(COc4cc5c(cc42)OCCO5)C(=O)N3Cc2ccccn2)cc1 (stereo not drawn) [Example 16.60, 4′-(4-methoxyphenyl)-1′-(pyridin-2-ylmethyl)-3,7-dihydro-2H-spiro[benzofuro[5,6-b][1,4]dioxine-8,3′-indolin]-2′-one]

Source: patent US8263606B2 (Xenon Pharmaceuticals Inc., priority 2008, dated 2012)
